Data on 23 compounds can be found in PubChem BioAssay AID330 (DTP/NCI, 2004).

Where “and” joins values, the source holds several entries; their conditions need not be identical. Equal values may be shown once. Inconclusive results and toxic doses are left out.

The assay has as its system P388 leukemia ip, CD2F1 mice, survival T/C. The experiment in a line: NCI In Vivo Anticancer Drug Screen. Data for tumor model P388 Leukemia (intraperitoneal) in CD2F1 (CDF1) mice. The note with it: endpoint: median survival time, higher = longer survival. The essentials:
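Mice carrying the transplanted tumor received test compound or vehicle. Survival was recorded in each group, and the value is the treated-group measurement divided by that of the vehicle-treated control group.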

Setting [1] is: dose: 50.0 mg/kg/injection, schedule: Q01DX009 (ip), vehicle: Klucel (hydroxypropylcellulose) (HPC).
Where [2] appears, read: dose: 100.0 mg/kg/injection, schedule: Q01DX009 (ip), vehicle: Klucel (hydroxypropylcellulose) (HPC).
The mark [3] stands for this setting: dose: 200.0 mg/kg/injection, schedule: Q01DX009 (ip), vehicle: Klucel (hydroxypropylcellulose) (HPC).
Setting [4] is: dose: 50.0 mg/kg/injection, schedule: Q01DX005 (ip), vehicle: saline with Tween-80.
Where [5] appears, read: dose: 100.0 mg/kg/injection, schedule: Q01DX005 (ip), vehicle: saline with Tween-80.
Where [6] appears, read: dose: 12.5 mg/kg/injection, schedule: Q01DX005 (ip), vehicle: saline.
Setting [7] is: dose: 25.0 mg/kg/injection, schedule: Q01DX005 (ip), vehicle: saline.
The mark [8] stands for this setting: dose: 50.0 mg/kg/injection, schedule: Q01DX009 (ip), vehicle: saline with Tween-80.
Where [9] appears, read: dose: 200.0 mg/kg/injection, schedule: Q01DX005 (ip), vehicle: saline with Tween-80.
The mark [10] stands for this setting: dose: 50.0 mg/kg/injection, schedule: Q01DX005 (ip), vehicle: Klucel (hydroxypropylcellulose) (HPC).
[11] abbreviates: dose: 100.0 mg/kg/injection, schedule: Q01DX005 (ip), vehicle: Klucel (hydroxypropylcellulose) (HPC).
Where [12] appears, read: dose: 200.0 mg/kg/injection, schedule: Q01DX005 (ip), vehicle: Klucel (hydroxypropylcellulose) (HPC).
[13] abbreviates: dose: 60.0 mg/kg/injection, schedule: Q01DX005 (ip), vehicle: saline with Tween-80.
The mark [14] stands for this setting: dose: 120.0 mg/kg/injection, schedule: Q01DX005 (ip), vehicle: saline with Tween-80.
The mark [15] stands for this setting: dose: 240.0 mg/kg/injection, schedule: Q01DX005 (ip), vehicle: saline with Tween-80.
Setting [16] is: dose: 50.0 mg/kg/injection, schedule: Q01DX009 (ip), vehicle: saline.
[17] abbreviates: dose: 100.0 mg/kg/injection, schedule: Q01DX009 (ip), vehicle: saline.
Where [18] appears, read: dose: 200.0 mg/kg/injection, schedule: Q01DX009 (ip), vehicle: saline.

Consider `COC1/C=C\OC2(C)Oc3c(C)c(O)c4c(O)c(c(CN(C)CCO)c(O)c4c3C2=O)NC(=O)/C(C)=C\C=C/C(C)C(O)C(C)C(O)C(C)C(OC(C)=O)C1C` (centres undefined), for which the T/C is, setting by setting: (dose: 12.5 mg/kg/injection, schedule: Q01DX009 (ip), vehicle: Klucel (hydroxypropylcellulose) (HPC)) 86 % of control; (dose: 25.0 mg/kg/injection, schedule: Q01DX009 (ip), vehicle: Klucel (hydroxypropylcellulose) (HPC)) 117 % of control; under setting [1], 118 % of control; under setting [2], 111 % of control; under setting [3], 104 % of control; (dose: 400.0 mg/kg/injection, schedule: Q01DX009 (ip), vehicle: Klucel (hydroxypropylcellulose) (HPC)) 96 % of control.

With `COc1cc2c(c(OC)c1OC)-c1cc3c(cc1C(OC1c4cc5c(cc4-c4c(cc(OC)c(OC)c4OC)CC4C(=O)OCC41)OCO5)C1COC(=O)C1C2)OCO3` (centres undefined), the T/C is, setting by setting: (dose: 2.5 mg/kg/injection, schedule: Q01DX005 (ip), vehicle: Klucel (hydroxypropylcellulose) (HPC)) 109 % of control; (dose: 5.0 mg/kg/injection, schedule: Q01DX005 (ip), vehicle: Klucel (hydroxypropylcellulose) (HPC)) 98 % of control; (dose: 10.0 mg/kg/injection, schedule: Q01DX005 (ip), vehicle: Klucel (hydroxypropylcellulose) (HPC)) 92 % of control; (dose: 20.0 mg/kg/injection, schedule: Q01DX005 (ip), vehicle: Klucel (hydroxypropylcellulose) (HPC)) 109 % of control.

As for `N=C(/C(=C/c1cccc2ccccc12)c1ccccc1)c1ccccc1`, the T/C was 98 % of control under setting [1], 104 % of control under setting [2] and 108 % of control under setting [3].

With `CCOC(=O)/C(C#N)=C/Nc1cc(C(=O)OC)ccc1C`, the T/C runs as follows: under setting [4], 88 % of control; under setting [5], 90 % of control.

Regarding `COc1cccc2c1C(=O)c1c(O)c3c(c(O)c1C2=O)CC(O)(C(O)CO)CC3OC1CC(N2CCOCC2C#N)C(O)C(C)O1` (centres undefined), the T/C (dose: 0.2 mg/kg/injection, schedule: Q04DX003 (ip), vehicle: water) was 176 % of control; the T/C (dose: 0.8 mg/kg/injection, schedule: Q04DX003 (ip), vehicle: water) is 89 % of control; the T/C (dose: 6.25 micrograms/kg/injection, schedule: Q04DX003 (ip), vehicle: water) was 101 % of control; the T/C (dose: 12.5 micrograms/kg/injection, schedule: Q04DX003 (ip), vehicle: water) was 107 % of control and 113 % of control; the T/C (dose: 25.0 micrograms/kg/injection, schedule: Q04DX003 (ip), vehicle: water) was 106 % of control and 117 % of control; the T/C (dose: 50.0 micrograms/kg/injection, schedule: Q04DX003 (ip), vehicle: water) was 119 % of control and 120 % of control. Further, the T/C (dose: 100.0 micrograms/kg/injection, schedule: Q04DX003 (ip), vehicle: water) was 124 % of control and the T/C (dose: 200.0 micrograms/kg/injection, schedule: Q04DX003 (ip), vehicle: water) is 124 % of control.

On to `CN1CCC/C1=N\C(=Nc1ccccc1)N1CCCC1`, for which the T/C is 105 % of control (dose: 6.25 mg/kg/injection, schedule: Q01DX005 (ip), vehicle: saline); 102 % of control under setting [6]; 103 % of control under setting [7].

`CC1(CCC(=O)c2cc3c(cc2Br)OCO3)OCCO1`: the T/C (dose: 25.0 mg/kg/injection, schedule: Q01DX005 (ip), vehicle: saline with Tween-80) is 99 % of control; the T/C under setting [4] is 99 % of control; the T/C under setting [5] is 100 % of control.

Turning to `NC(=S)N/N=C/c1ccc(OC(=O)COc2ccccc2)cn1`, the T/C (dose: 25.0 mg/kg/injection, schedule: Q01DX009 (ip), vehicle: saline with Tween-80) is 171 % of control; the T/C under setting [8] is 205 % of control; the T/C (dose: 100.0 mg/kg/injection, schedule: Q01DX009 (ip), vehicle: saline with Tween-80) is 205 % of control.

As for `CN(C)S(=O)(=O)CCNC(=O)N(CCCl)N=O`, the T/C (dose: 2.5 mg/kg/injection, schedule: Q01DX005 (ip), vehicle: saline) is 100 % of control; the T/C (dose: 5.0 mg/kg/injection, schedule: Q01DX005 (ip), vehicle: saline) was 104 % of control; the T/C (dose: 10.0 mg/kg/injection, schedule: Q01DX005 (ip), vehicle: saline) was 119 % of control and 218 % of control; the T/C (dose: 20.0 mg/kg/injection, schedule: Q01DX005 (ip), vehicle: saline) was 203 % of control and 250 % of control.

Regarding `Cc1c2c(c(O)c3sccc13)C(C)(C)OC2=O`, the T/C runs as follows: under setting [4], 101 % of control; under setting [5], 99 % of control; under setting [9], 97 % of control.

As for `COC(=O)c1nnn(Cc2ccccc2)c1Cl`, the T/C under setting [10] was 98 % of control; the T/C under setting [11] is 103 % of control and 104 % of control; the T/C under setting [12] was 102 % of control and 105 % of control.

`CCc1c(C)nc2cc(-c3cc(C)n4c(=O)c(CC)c(C)nc4c3)cc(C)n2c1=O`: the T/C by setting is: (dose: 60.0 mg/kg/injection, schedule: Q01DX005 (ip), vehicle: Klucel (hydroxypropylcellulose) (HPC)) 90 % of control; (dose: 120.0 mg/kg/injection, schedule: Q01DX005 (ip), vehicle: Klucel (hydroxypropylcellulose) (HPC)) 96 % of control; (dose: 240.0 mg/kg/injection, schedule: Q01DX005 (ip), vehicle: Klucel (hydroxypropylcellulose) (HPC)) 100 % of control.

Turning to `Nc1ccccc1C(=O)CCc1ccccc1`, the T/C reads like this: under setting [13], 100 % of control; under setting [14], 99 % of control; under setting [15], 97 % of control.

As for `COC(=O)CS(=O)(=O)CC(=O)OC`, the T/C is, setting by setting: under setting [1], 100 % of control; under setting [2], 106 % of control; under setting [3], 101 % of control.

With `Cc1cccc(C)c1NC(=O)NNC(N)=S`, the T/C under setting [8] is 97 % of control.

Consider `C=C(C)C(=O)Nc1ccc2nn(-c3ccccc3O)nc2c1`, for which the T/C was 93 % of control under setting [16], 86 % of control under setting [17] and 94 % of control under setting [18].

With `CCCCCCCCSC(SCCCCCCCC)C(O)C(O)C(O)CO` (centres undefined), the T/C runs as follows: under setting [4], 93 % of control; under setting [5], 109 % of control.

For the compound `O=C(O)c1cc(-c2cccc3ccccc23)nc2ccccc12`, the T/C by setting is: under setting [4], 94 % of control; under setting [5], 94 % of control; under setting [9], 94 % of control.

For `Cn1c(=S)[nH]c2sc3c(c2c1=O)CCC3`, the T/C was 96 % of control under setting [13], 93 % of control under setting [14] and 89 % of control under setting [15].

For the compound `c1ccc(N2CCN(c3ccccc3)C2=C2N(c3ccccc3)CCN2c2ccccc2)cc1`, the T/C is 105 % of control (dose: 3.0 mg/kg/injection, schedule: Q01DX005 (ip), vehicle: saline); 107 % of control (dose: 6.0 mg/kg/injection, schedule: Q01DX005 (ip), vehicle: saline); 105 % of control (dose: 12.0 mg/kg/injection, schedule: Q01DX005 (ip), vehicle: saline); 114 % of control under setting [6]; 99 % of control and 118 % of control under setting [7].

Regarding `CC(C)CC(NC(=O)C(N)Cc1c[nH]c2ccccc12)C(=O)O` (centres undefined), the T/C was 96 % of control under setting [16], 95 % of control under setting [17] and 118 % of control under setting [18].

Turning to `Cc1ccc(S(=O)(=O)O/N=C(/CC/C(=N\OS(=O)(=O)c2ccc(C)cc2)c2ccccc2)c2ccccc2)cc1`, the T/C (dose: 100.0 mg/kg/injection, schedule: Q04DX002 (ip), vehicle: saline with Tween-80) was 95 % of control; the T/C (dose: 200.0 mg/kg/injection, schedule: Q04DX002 (ip), vehicle: saline with Tween-80) was 115 % of control; the T/C (dose: 400.0 mg/kg/injection, schedule: Q04DX002 (ip), vehicle: saline with Tween-80) is 96 % of control.

`CC1(C)Cc2[nH]c3ccccc3c(=O)c2-c2nc3ccccc3c(=O)n21`: the T/C by setting is: (dose: 12.5 mg/kg/injection, schedule: Q01DX005 (ip), vehicle: Klucel (hydroxypropylcellulose) (HPC)) 98 % of control; (dose: 25.0 mg/kg/injection, schedule: Q01DX005 (ip), vehicle: Klucel (hydroxypropylcellulose) (HPC)) 88 % of control; under setting [10], 90 % of control; under setting [11], 98 % of control; under setting [12], 116 % of control.
